Laboratory results reported in ChEMBL document CHEMBL2177017, “Vascular endothelial growth factor (VEGF) receptors: drugs and new inhibitors” (J Med Chem, 2012).

How the values were obtained:
[1] = Inhibition of FGFRbeta
[2] = test system: Mus musculus; test: Antitumor activity against human tumor xenografted athymic mouse assessed as inhibition of tumor growth; assay type: functional
[3] = target: Fibroblast growth factor receptor 2 (Homo sapiens, UniProt P21802); test: Inhibition of FGFR2
[4] = target: Mast/stem cell growth factor receptor Kit (Homo sapiens, UniProt P10721); test: Inhibition of c-Kit
[5] = target: Vascular endothelial growth factor receptor 2 (Homo sapiens, UniProt P35968); test: Inhibition of VEGFR2
[6] = target: Platelet-derived growth factor receptor beta (Homo sapiens, UniProt P09619); test: Inhibition of PDGFRbeta
[7] = test system: HUVEC; test: Antiangiogenic activity in HUVEC assessed as inhibition of tube formation at 10 uM; assay type: functional; conditions: Homo sapiens
[8] = test system: HepG2; test: Antitumor activity against human HepG2 cells xenografted mouse assessed as inhibition of tumor growth at 100 mg/kg qd for 18 days; assay type: functional; conditions: HepG2, 432 h, read-out: TGI
[9] = organism: Danio rerio; test: Antiangiogenic activity in zebrafish embryos assessed as inhibition of intersegmental vessel growth at 2.5 uM; assay type: functional, Embryo
[10] = test system: SW-620; test: Antitumor activity against human SW620 cells xenografted mouse assessed as inhibition of tumor growth at 100 mg/kg qd for 18 days; assay type: functional; conditions: SW-620, 432 h, read-out: TGI
[11] = target: RAF proto-oncogene serine/threonine-protein kinase (Homo sapiens, UniProt P04049); test: Inhibition of c-Raf
[12] = target: Tyrosine-protein kinase Lck (Homo sapiens, UniProt P06239); test: Inhibition of LCK
[13] = target: Vascular endothelial growth factor receptor 1 (Homo sapiens, UniProt P17948); test: Inhibition of VEGFR1
[14] = target: Vascular endothelial growth factor receptor 3 (Homo sapiens, UniProt P35916); test: Inhibition of VEGFR3
[15] = target: Fibroblast growth factor receptor 1 (Homo sapiens, UniProt P11362); test: Inhibition of FGFR1

Chain of Vascular endothelial growth factor receptor 3 (P35916 whole entry): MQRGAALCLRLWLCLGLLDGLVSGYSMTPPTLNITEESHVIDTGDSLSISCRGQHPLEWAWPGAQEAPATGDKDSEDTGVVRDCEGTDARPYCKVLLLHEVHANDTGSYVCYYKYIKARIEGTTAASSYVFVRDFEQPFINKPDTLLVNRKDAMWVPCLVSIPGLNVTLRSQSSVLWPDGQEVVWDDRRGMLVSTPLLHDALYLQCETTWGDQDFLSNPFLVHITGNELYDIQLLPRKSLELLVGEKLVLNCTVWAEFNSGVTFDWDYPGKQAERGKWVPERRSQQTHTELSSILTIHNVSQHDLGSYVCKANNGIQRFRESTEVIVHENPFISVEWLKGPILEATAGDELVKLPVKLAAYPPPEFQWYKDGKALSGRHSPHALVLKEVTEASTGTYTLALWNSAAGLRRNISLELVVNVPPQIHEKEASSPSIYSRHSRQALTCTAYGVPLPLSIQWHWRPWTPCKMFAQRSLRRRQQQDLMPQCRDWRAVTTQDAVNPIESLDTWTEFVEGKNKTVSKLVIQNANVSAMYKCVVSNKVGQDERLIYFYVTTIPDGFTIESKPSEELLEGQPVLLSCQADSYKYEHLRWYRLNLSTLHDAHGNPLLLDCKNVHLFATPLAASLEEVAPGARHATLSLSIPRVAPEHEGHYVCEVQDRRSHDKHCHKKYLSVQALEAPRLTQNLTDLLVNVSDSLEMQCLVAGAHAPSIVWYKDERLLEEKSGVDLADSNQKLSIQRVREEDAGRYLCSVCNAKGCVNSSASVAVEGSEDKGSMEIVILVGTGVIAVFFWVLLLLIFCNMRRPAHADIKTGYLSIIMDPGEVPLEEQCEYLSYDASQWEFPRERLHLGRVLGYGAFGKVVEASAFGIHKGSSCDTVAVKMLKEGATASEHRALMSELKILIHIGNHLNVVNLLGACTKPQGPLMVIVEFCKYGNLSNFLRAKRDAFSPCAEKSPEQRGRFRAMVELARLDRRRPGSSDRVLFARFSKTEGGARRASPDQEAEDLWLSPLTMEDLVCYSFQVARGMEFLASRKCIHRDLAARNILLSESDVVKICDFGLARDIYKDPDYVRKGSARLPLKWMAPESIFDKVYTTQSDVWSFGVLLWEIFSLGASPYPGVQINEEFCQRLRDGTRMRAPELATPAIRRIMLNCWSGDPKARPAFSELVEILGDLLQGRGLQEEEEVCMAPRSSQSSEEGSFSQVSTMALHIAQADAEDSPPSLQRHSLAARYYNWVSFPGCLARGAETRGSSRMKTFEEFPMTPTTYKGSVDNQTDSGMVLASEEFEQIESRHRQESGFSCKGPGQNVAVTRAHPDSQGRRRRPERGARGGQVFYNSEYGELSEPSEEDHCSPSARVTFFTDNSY
Chain of Vascular endothelial growth factor receptor 2 (P35968 whole entry): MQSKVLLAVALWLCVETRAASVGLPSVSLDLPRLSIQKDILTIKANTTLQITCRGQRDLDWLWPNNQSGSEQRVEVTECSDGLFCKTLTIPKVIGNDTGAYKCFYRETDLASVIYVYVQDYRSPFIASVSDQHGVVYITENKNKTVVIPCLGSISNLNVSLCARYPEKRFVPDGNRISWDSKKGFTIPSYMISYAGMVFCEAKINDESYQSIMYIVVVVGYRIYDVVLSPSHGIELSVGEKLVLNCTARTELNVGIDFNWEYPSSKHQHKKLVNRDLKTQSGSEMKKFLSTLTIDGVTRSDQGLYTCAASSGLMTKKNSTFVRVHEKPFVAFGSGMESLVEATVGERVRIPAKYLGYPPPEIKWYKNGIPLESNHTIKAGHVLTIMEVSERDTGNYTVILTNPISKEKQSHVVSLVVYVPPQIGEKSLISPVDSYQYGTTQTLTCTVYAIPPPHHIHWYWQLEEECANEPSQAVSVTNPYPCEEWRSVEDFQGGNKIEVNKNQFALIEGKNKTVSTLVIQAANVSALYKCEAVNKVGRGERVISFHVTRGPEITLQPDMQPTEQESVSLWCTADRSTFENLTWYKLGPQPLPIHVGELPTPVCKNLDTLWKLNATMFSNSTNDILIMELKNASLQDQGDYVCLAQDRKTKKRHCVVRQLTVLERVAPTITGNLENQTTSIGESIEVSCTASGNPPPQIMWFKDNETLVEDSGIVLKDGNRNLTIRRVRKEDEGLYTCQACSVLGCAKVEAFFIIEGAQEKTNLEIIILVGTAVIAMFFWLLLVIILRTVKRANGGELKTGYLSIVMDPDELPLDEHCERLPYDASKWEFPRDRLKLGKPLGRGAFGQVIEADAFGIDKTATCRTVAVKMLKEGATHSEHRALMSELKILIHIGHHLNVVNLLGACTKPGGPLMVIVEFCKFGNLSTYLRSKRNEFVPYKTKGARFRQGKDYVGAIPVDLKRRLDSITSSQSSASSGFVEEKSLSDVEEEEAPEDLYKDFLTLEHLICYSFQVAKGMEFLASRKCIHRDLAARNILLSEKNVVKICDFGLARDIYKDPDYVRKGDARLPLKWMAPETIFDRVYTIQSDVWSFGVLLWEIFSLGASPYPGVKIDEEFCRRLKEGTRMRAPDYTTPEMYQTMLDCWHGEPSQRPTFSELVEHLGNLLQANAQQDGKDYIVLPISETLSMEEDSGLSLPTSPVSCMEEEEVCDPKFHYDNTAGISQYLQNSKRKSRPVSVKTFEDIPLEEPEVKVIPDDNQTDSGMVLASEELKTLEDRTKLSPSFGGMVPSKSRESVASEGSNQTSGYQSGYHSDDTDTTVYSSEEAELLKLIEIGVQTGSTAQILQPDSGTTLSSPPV
Chain of Mast/stem cell growth factor receptor Kit (P10721 whole entry): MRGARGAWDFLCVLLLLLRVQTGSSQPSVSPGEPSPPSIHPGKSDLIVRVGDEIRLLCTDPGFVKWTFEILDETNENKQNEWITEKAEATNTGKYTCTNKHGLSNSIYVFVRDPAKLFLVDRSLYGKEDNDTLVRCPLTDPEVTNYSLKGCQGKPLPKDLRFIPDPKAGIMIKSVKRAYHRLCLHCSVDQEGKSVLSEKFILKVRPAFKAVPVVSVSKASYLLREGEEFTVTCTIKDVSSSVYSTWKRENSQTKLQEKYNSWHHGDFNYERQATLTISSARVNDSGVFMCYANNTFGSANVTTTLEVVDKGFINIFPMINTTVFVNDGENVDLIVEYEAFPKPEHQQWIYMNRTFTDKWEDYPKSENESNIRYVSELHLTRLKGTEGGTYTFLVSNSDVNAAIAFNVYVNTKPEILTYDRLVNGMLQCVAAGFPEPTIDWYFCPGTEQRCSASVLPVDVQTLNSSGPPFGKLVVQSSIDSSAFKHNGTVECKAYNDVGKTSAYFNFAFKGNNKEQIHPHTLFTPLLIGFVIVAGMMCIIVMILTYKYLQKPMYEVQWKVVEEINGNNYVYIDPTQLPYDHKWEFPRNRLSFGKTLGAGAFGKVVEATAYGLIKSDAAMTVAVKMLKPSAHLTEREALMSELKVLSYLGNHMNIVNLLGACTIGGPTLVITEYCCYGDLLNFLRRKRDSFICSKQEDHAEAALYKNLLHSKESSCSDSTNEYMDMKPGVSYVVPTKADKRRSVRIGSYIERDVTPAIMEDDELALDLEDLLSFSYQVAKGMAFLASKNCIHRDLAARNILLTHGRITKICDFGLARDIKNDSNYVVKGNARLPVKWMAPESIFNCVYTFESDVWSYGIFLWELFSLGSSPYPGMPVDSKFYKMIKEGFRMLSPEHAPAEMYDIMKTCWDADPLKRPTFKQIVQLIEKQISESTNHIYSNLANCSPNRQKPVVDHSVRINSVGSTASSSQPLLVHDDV
Chain of Fibroblast growth factor receptor 2 (P21802 whole entry): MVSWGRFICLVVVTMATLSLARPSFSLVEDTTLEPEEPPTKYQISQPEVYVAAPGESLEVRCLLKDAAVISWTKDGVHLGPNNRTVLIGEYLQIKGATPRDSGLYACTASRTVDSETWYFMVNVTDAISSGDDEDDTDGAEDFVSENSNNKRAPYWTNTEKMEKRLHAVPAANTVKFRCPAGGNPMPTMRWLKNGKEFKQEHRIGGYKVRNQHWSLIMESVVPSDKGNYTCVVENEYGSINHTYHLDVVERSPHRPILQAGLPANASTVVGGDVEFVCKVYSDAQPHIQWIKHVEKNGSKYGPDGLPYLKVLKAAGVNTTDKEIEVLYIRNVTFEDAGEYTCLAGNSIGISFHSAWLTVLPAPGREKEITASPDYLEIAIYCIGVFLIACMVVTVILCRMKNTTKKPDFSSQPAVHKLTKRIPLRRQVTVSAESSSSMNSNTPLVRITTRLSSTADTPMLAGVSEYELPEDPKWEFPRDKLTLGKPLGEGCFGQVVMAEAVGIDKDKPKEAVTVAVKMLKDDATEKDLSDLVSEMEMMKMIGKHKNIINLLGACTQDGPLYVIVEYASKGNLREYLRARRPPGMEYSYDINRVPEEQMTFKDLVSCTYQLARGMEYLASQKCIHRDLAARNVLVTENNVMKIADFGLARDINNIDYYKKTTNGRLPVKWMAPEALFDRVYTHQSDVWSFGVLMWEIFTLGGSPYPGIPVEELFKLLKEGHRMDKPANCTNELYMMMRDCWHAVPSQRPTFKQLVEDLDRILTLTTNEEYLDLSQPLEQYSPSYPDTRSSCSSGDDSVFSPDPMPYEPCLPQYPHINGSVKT
Chain of Tyrosine-protein kinase Lck (P06239 whole entry): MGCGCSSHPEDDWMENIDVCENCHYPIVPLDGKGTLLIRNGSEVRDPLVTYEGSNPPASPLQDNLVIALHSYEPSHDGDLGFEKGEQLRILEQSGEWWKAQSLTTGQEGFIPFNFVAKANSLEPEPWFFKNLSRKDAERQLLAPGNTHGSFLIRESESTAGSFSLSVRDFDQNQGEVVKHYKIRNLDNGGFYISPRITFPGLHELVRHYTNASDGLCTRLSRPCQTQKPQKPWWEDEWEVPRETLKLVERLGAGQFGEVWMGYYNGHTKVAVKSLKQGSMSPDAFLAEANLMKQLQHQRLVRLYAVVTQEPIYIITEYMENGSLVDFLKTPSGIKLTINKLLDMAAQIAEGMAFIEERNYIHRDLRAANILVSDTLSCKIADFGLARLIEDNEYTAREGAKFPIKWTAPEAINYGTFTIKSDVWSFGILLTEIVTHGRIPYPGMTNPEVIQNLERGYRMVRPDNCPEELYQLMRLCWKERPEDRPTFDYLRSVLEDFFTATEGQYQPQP

NC(=O)c1c(OCc2c(F)cc(Br)cc2F)nsc1NC(=O)NCCCCN1CCCC1 [OSI-632]
IC50 [1]: 9 nM
TGI [2]: 85%

COc1cc2c(Oc3ccc(Nc4ccc(C(C)(C)C)cc4)cc3)ccnc2cc1OCCNCCO
IC50 [3]: 69 nM
IC50 [4]: 69 nM
IC50 [5]: 69 nM
IC50 [6]: 69 nM

COc1cc2ncnc(Sc3nnc(C)s3)c2cc1OC
inhibition at 10 µM [7]: 98%
inhibition in vivo at 100 mg/kg [8]: 63%
IC50 [5]: 32 nM
inhibition (INH) [9]: 80%
inhibition in vivo at 100 mg/kg [10]: 72%

O=C(Nc1ccc(OC(F)(F)F)cc1)c1sccc1NCc1ccnc2ccccc12 [OSI-930]
IC50 [11]: 41 nM
IC50 [4]: 10 nM
IC50 [12]: 22 nM

CNC(=O)c1cccc2cc(Oc3ccnc4cc(OCC5(N)CC5)c(OC)cc34)ccc12
IC50 [3]: 82.5 nM
IC50 [5]: 25 nM
IC50 [13]: 7 nM
IC50 [14]: 10 nM
IC50 [15]: 17.5 nM

CCN1CCN(Cc2ccc(-c3cc4c(N[C@H](C)c5ccccc5)ncnc4[nH]3)cc2)CC1 [AEE-788]
IC50 [5]: 77 nM
IC50 [13]: 59 nM

COc1cc2nccc(Oc3ccc(NC(=O)NC4CC4)c(Cl)c3)c2cc1C(N)=O [LENVATINIB]
IC50 [14]: 5.2 nM

CNC(=O)c1cc(COc2nnc(Nc3ccc(Cl)cc3)c3ccoc23)ccn1 [TELATINIB]
IC50 [14]: 4 nM
